Values of other authors, collected in patent publication US20080255231A1, “POLYMORPHS OF RIVASTIGMINE HYDROGENTARTRATE” (priority 2007, published 2008).

In the case of `CCN(C)C(=O)Oc1cccc([C@H](C)N(C)C)c1` [Rivastigmine hydrogentartrate, [3-[α-(Dimethylamino)-ethyl]phenyl]-N-methylethylcarbamate hydrogentartrate], the solubility in acetonitrile (acetonitrile) is given as “soluble”, the solubility in ethanol (ethanol) is given as “soluble” and the “solubility in ethyl acetate” value (ethyl acetate) is given as “very slightly soluble”. The solubility in n-octanol (n-octanol) was “slightly soluble” and the solubility in water (water) was “very soluble”.
